For orientation: melting point means the temperature of the solid-liquid transition.

On to `Cc1c(C(=O)O)ncn1Cc1ccc2oc(-c3ccccc3-c3nnn[nH]3)c(Br)c2c1`, for which the melting point came out at 248 °C.
With `O=c1c2c([nH]n1-c1cc(OCC3CCCSC3)c(Cl)cc1F)CCCC2` (stereo not drawn) the figure was 96 to 100 °C; with `NC(=O)C1CCc2[nH]c3ccc(OC(F)(F)F)cc3c2C1` (stereo not drawn), 177 to 178 °C; with `Fc1cccc(F)c1N1CS/C1=N/N=C\c1ccc(-c2ncn(-c3ccc(OC(F)(F)F)cc3)n2)cc1`, 144 to 146 °C.
Then `CC(C)(C)NC(=O)N1C(=O)[C@H](O)[C@@H]1c1ccccc1`, with 148 to 151 °C; and `O=C(O)Cc1ccc(CCNS(=O)(=O)c2ccc(F)cc2)cc1`, with 192 to 193 °C; and `O=C(O)COc1cccc2c1Cc1sc(SCCCC(c3ccccc3)c3ccccc3)nc1-2`, with 110 to 112 °C.
Then `O=c1c2c(Cc3cccc([N+](=O)[O-])c3)n[nH]c2c2cccnc2n1-c1ccccc1`, with above 320 °C.
The compound `CCCCn1nc2c(N)nc3ccccc3c2c1CCS(=O)(=O)CCC` registered a melting point of 169 to 171 °C.
Compound `COC(c1ccc(Cl)cc1)(c1cc2c3c(c1)c(-c1cccc(Cl)c1)cc(=O)n3CCC2)c1nncn1C` (stereo not drawn) returned a melting point of 132 °C.
The compound `CN(C)CCCOc1ccc(N2N=C3c4cc(F)ccc4CCC3CC2=O)cc1` (stereo not drawn) yielded a melting point of 118 to 120 °C.
With `Cc1c(Cc2cccnc2)oc2ccc(C(=O)O)cc12` the figure was 219 to 221 °C; with `COc1ccc2oc(-c3ccccc3)c(C)c2c1`, 106 to 107 °C; with `COc1cc(OC)cc(-c2oc3ncnc(NC4CCCCCC4)c3c2-c2ccccc2)c1`, 151 to 152 °C.
`O=C(CCc1ccccc1)N[C@H]1COC1=O`: the melting point was in the range of 104 to 106 °C.
With `COc1cccc2c1[nH]c(=O)n1c(=O)[nH]nc21` the figure was 308 to 310 °C; with `CCCCCCCCCCCCCCCCCCNC(=O)OCC(CNS(=O)(=O)CCCI)OC(=O)NC` (stereo not drawn), 97 to 99 °C.
Then `CCCc1c(OCc2cccc(COc3ccccc3CCC(=O)O)c2)ccc2c1OCCC2=O`, with 132 to 135 °C; and `CCCc1nn(-c2ccc(C(F)(F)F)cn2)cc1CCCCOc1cc(CCC(=O)O)n(C)n1`, with 122 to 123 °C.
Compound `O=C(O)CCCn1nnnc1S` had a melting point of 90 to 95 °C.
Then `CN1Cc2ccccc2C(=O)c2cc(CC(=O)O)ccc21`, with 194 to 196 °C; and `COC(=O)c1c(C(=O)OC)c(-c2ccccc2)n2c1Cc1ccccc1-2`, with 149 to 151 °C.
Then `CC(C)NC1=C(Cl)NC(N)(C(=O)NC#N)C=N1` (stereo not drawn), with 232 °C.
Then `CCC(=C(c1ccc(O)cc1)c1ccc(O)cc1)c1cccc(/C=C/C(=O)O)c1`, with 280 to 281 °C.
In the case of `COC(=O)c1cc(COS(C)(=O)=O)cc([N+](=O)[O-])c1`, the melting point was in the range of 96 to 97 °C.
Then `O=S(=O)(c1ccc(F)cc1)N1CCC(Nc2nc(OCC(F)(F)F)nc(-c3ccc(F)cc3)n2)CC1`, with 183 to 185 °C; and `CCCC1CCC2C3CCc4cc(O)c(C=O)cc4C3CCC12C` (stereo not drawn), with 122 to 123 °C; and `Nc1ccc2c(c1)SC1=NCCCN12`, with 186 °C.
Then `COc1ccc(CS(=O)C(C)(C)C)cc1` (stereo not drawn), with 124 to 126 °C; and `FC(F)(F)c1cc(Nc2nc3ccccc3o2)cc(C(F)(F)F)c1`, with 178 to 180 °C.
Then `CCOC(=O)Cc1nsc2ccc([N+](=O)[O-])cc12`, with 91 to 92 °C; and `N#CC1=C(C2CC2)Nc2n[nH]cc2C1c1cccc2nocc12` (stereo not drawn), with 248 °C; and `CC1N=CC=C(CS)C1(O)CC(=O)O` (stereo not drawn), with 185 to 187 °C.
In turn, `CC(C)(C)NC(=O)Nc1nc2nc(N)ncc2cc1-c1c(Cl)ccc(Cl)c1Cl` displayed a melting point of 329 to 330 °C.
Then `CN(CCOc1ccc(CO)cc1)c1ncccn1`, with 73 to 74 °C; and `CCCCc1c(-c2ccncc2)[nH]c(-c2ccncc2)c1C(=O)OCC`, with 256 to 258 °C.
Then `COC(=O)[C@@H]1Cc2cc(Cl)c(Cl)cc2[C@@H](NC(N)=O)C1` (relative stereo), with 227 to 229 °C; and `CC(C)Oc1ccc(-c2ccc3nc(C(=O)NC(Cc4ccc(OCc5ccccc5)cc4)C(=O)O)cn3c2)cc1` (stereo not drawn), with 263 °C; and `COc1c(N2CCC(N)C(C)C2)c(F)c(N)c2c(=O)c(C(=O)O)cn(C3CC3)c12` (stereo not drawn), with 260 to 262 °C.
With `CS(=O)c1ccc(Oc2ccc(Cl)c(Cl)c2)cc1` (stereo not drawn) the figure was 92 to 93.5 °C.
`CCCCCC1CCC2c3ccc(OCC)c(F)c3OC2C1` (stereo not drawn) showed a melting point of 118 °C.
With `Cc1oc(-c2ccccc2)nc1CCC(=O)c1ccc(C=CC=O)cc1` the figure was 119 to 120 °C; with `Cc1cn(C(C)(C)C(=O)N(C)C)nc1-c1ccc(Cl)cc1`, 122 to 124 °C; with `Cc1nc2c(n1C)CC(C(=O)N(C)C)CC2=O` (stereo not drawn), 190 to 194 °C.
`COc1ccc2[nH]cc(CC3=CCCN(CCCC(=NO)c4ccc(F)cc4)C3)c2c1` yielded a melting point of 129 to 130 °C.
Turning to `CNCc1nc(-c2ncn3c2[C@@H]2CCN2C(=O)c2cc(F)ccc2-3)no1`, the melting point lay within 155 to 160 °C.
For the compound `CCOCc1nc2c(N)nc3ccccc3c2n1CC(C)(C)C(N)=O`, the melting point was 241 to 243 °C.
With `O=C(O)c1ccc(Oc2ccccc2C(=O)O)cc1` the figure was 220 to 223 °C; with `O=C1CCCc2onc(-c3ccccc3F)c21`, 82 to 83 °C; with `CC(C)(C)OC(=O)NN(Cc1cc(F)cc(F)c1)C(N)=O`, 129 to 130 °C.
With `COc1nc2ccc(Br)cc2cc1C(c1ccccc1)n1ccnc1` (stereo not drawn) the figure was 161 to 162 °C.
With `Cc1ccc(S(=O)(=O)OCC2CCN(c3nc4ccccc4s3)CC2)cc1` the figure was 184 °C.
For `CC1(C)Cc2c(c(N3CCOCC3)nc3sc4c(NCC(=O)N5CCOCC5)ncnc4c23)CO1`, the melting point was in the range of 209 to 210 °C.
`CCCCOc1ccc(CCNc2ncnc(CC)c2C(=O)O)cc1` returned a melting point of 208 to 211 °C.
With `CC1(C)Oc2ccccc2-n2cnc(-c3noc(C4CC4)n3)c21` the figure was 155 to 156 °C; with `CCOc1ccc2c(OC(=O)C(F)(F)F)c3cc4ccccc4cc3c(OC(=O)C(F)(F)F)c2c1`, 165 to 170 °C.
With `O=C(O)COc1ccc(CC(Cc2ccccc2)NS(=O)(=O)c2ccc(Cl)cc2)cc1` (stereo not drawn) the figure was 150 to 151 °C; with `COc1ccc(C=CC(=O)C2CC2)cc1OC`, 89 to 91 °C.
Turning to `CCCc1ccc(OCCC(C)C)cc1O`, the melting point was 40 to 40.5 °C.
Then `CC(=O)OC1CSC(Oc2ccc3cc[nH]c3c2)C(OC(C)=O)C1OC(C)=O` (stereo not drawn), with 172 to 175 °C.
Then `CCCCCCCCCCCCCCCCCCn1c(C)c(CC(=O)NN)c2cc(OC)ccc21`, with 121 to 123 °C.
With `COc1ccc(C2=C(C#N)C(c3cccc4nsnc34)c3c[nH]nc3N2)cc1` (stereo not drawn) the figure was 238 °C.
The compound `Cc1ccc(S(=O)(=O)Oc2ccc(C(c3ccc(OS(=O)(=O)c4ccc(C)cc4)c([N+](=O)[O-])c3)(C(F)(F)F)C(F)(F)F)cc2[N+](=O)[O-])cc1` came in with a melting point of 206 to 208 °C.
With `CCC(CC)c1ccc(Cl)c2nc3n(c12)CCCC(=O)N3c1ccc(Cl)cc1Cl` the figure was 135 to 137 °C; with `O=C(O)C(Sc1ccc(Cl)cc1)c1ccc(Oc2ccccc2)cc1` (stereo not drawn), 121 to 125 °C.
As to `Cc1ccc(-c2cncc(OC3SCC(O)C(O)C3O)c2)cc1F` (stereo not drawn), the melting point was 213 °C.
Then `Cc1ccccc1-c1c(NC(=O)Nc2c(C)cccc2C(C)C)c(=O)oc2c(F)cc(F)cc12`, with 219 to 220 °C; and `Cc1c(NC(=O)NCCO)c(C)c2c(c1-c1ccccc1)OCC2c1ccc(C(C)C)cc1` (stereo not drawn), with 152 to 155 °C; and `CC1(C(=O)C2(C)COCOC2)COCOC1`, with 100 to 102 °C.
As for `C=CCN(CC)c1nc(N2CCc3ccccc3CC2)c(C#N)c(=O)n1CC=C`, the melting point was 138 to 140 °C.
With `Cc1ccc2oc([N+](=O)[O-])c(-c3ccccc3)c2c1` the figure was 144 to 146 °C.
With `CC(C)(CN)c1ccc(-n2c(-c3cc(-c4cnc5ccccc5c4)ccn3)c[nH]c2=O)cc1` the figure was 244 to 247 °C; with `CC(=O)N1CCC(CCC(=O)c2ccc3c(c2)CCN3c2ccncc2)CC1`, 157 to 158 °C.
With `COC(=O)COc1ccc(Cl)c2c1c1c(n2Cc2ccccc2)CCCC1C(N)=O` (stereo not drawn) the figure was 185 to 186 °C; with `CCOC(=O)C1=C(C)NC(=S)N(C(=O)c2ccc(OC)cc2)C1c1cccc([N+](=O)[O-])c1` (stereo not drawn), 130 to 132 °C; with `O=c1[nH]c2c(o1)-c1ccncc1CC2`, 290 to 292 °C.
Compound `Cc1nc2c3c(ccn2c1C)C(O)C(O)C(c1ccccc1)N3` (stereo not drawn) showed a melting point of 199 to 200 °C.
Then `O=C(O)CNc1ccccc1F`, with 126 to 127 °C; and `COc1ccc(C=C2OC(=O)c3ccccc32)cc1[N+](=O)[O-]`, with 173 to 181 °C; and `O=C(O)C1CC(c2ccccc2)=NN1C(=O)CP(=O)(O)CCCCc1ccccc1` (single isomer, unassigned; (+)), with 166 to 169 °C.
In turn, `COC(=O)c1[nH]c(C)c(C)c1OCCCl` came in with a melting point of 122 to 123 °C.
With `CCCC1(CCC)c2cc(Br)ccc2-c2cc(OC)c(Br)cc21` the figure was 127 to 132 °C.
With `Cc1ccc(CC(=O)NCc2cccc3c2C(=O)N(C2CCC(=O)NC2=O)C3=O)cc1F` (stereo not drawn) the figure was 148 to 150 °C.
With `CC(C)(C)OC(=O)NCc1ccc(CNC(=O)[C@@H](CCCNC(N)=N[N+](=O)[O-])NC(=O)C(c2ccccc2)c2ccccc2)cc1` the figure was 198 °C; with `O=C(c1cc(C2=CCCCC2)ccn1)N(O)Cc1ccccc1`, 118 to 122 °C; with `CSNC(=O)c1c(Cl)cccc1[Si](C)(C)C`, 92 to 94 °C.
Compound `CN(C)C1(Cc2ccccc2)CCC(O)(c2cc3ccccc3o2)CC1` (stereo not drawn) gave a melting point of 121 to 124 °C.
With `Cc1ccc(C(=O)OC2CCCCC2=O)cc1` (stereo not drawn) the figure was 68 to 69 °C.

Source of the values: a melting point compilation (Tetko et al.; mined from patent text by program, amines drawn as free bases though some values may be those of a salt).
